Key:
Assay in all cases: relative viability (nuclei count vs DMSO), 5 days (fraction); higher = more cells survive
[1] = compound: CC1CC(=O)N(C2=CN=C(N=C2N1C3CCCC3)NC4=C(C=C(C=C4)C(=O)NC5CCN(CC5)C)OC)C [NPK76-II-72-1] + Cc1cc(Nc2cc(N3CCN(C)CC3)nc(Sc3ccc(NC(=O)C4CC4)cc3)n2)n[nH]1 [Tozasertib] (partner 0.1 µM)
How it was run: (§1)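 The day after seeding in 1536-well plates, lung cancer cell lines were treated by pin tool with a single drug, or with a fixed anchor-drug dose together with five library-drug doses (not always all listed) in √10 steps. After 5 days, a combined fix-and-stain solution (final 0.05% Triton X-100, 1% formaldehyde, 1 ug/ml Hoechst) was added. Nuclei counted on 4× images gave relative viability as treated counts over vehicle counts, reported as the median of duplicate plates.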

BI-2536 + Pemetrexed = compound: CC[C@@H]1C(=O)N(C)c2cnc(Nc3ccc(C(=O)NC4CCN(C)CC4)cc3OC)nc2N1C1CCCC1 [BI-2536] + Nc1nc2[nH]cc(CCc3ccc(C(=O)N[C@@H](CCC(=O)O)C(=O)O)cc3)c2c(=O)[nH]1 [Pemetrexed] (partner 0.2 µM)
How it was run: as §1

BI-2536 + Navitoclax = compound: CC[C@@H]1C(=O)N(C)c2cnc(Nc3ccc(C(=O)NC4CCN(C)CC4)cc3OC)nc2N1C1CCCC1 [BI-2536] + CC1(C)CCC(c2ccc(Cl)cc2)=C(CN2CCN(c3ccc(C(=O)NS(=O)(=O)c4ccc(N[C@H](CCN5CCOCC5)CSc5ccccc5)c(S(=O)(=O)C(F)(F)F)c4)cc3)CC2)C1 [Navitoclax] (partner 0.5 µM)
How it was run: as §1

BI-2536 + Crizotinib = compound: CC[C@@H]1C(=O)N(C)c2cnc(Nc3ccc(C(=O)NC4CCN(C)CC4)cc3OC)nc2N1C1CCCC1 [BI-2536] + C[C@@H](Oc1cc(-c2cnn(C3CCNCC3)c2)cnc1N)c1c(Cl)ccc(F)c1Cl [Crizotinib] (partner 1 µM)
How it was run: as §1

| Cell Line | relative viability ([1]; first compound 0.01 µM) | relative viability ([1]; first compound 0.03162 µM) | relative viability ([1]; first compound 0.1 µM) | relative viability ([1]; first compound 0.3162 µM) | relative viability ([1]; first compound 1 µM) | relative viability (BI-2536 + Pemetrexed; first compound 0.01 µM) | relative viability (BI-2536 + Pemetrexed; first compound 0.03162 µM) | relative viability (BI-2536 + Pemetrexed; first compound 0.1 µM) | relative viability (BI-2536 + Pemetrexed; first compound 0.3162 µM) | relative viability (BI-2536 + Pemetrexed; first compound 1 µM) | relative viability (BI-2536 + Navitoclax; first compound 0.01 µM) | relative viability (BI-2536 + Navitoclax; first compound 0.03162 µM) | relative viability (BI-2536 + Navitoclax; first compound 0.1 µM) | relative viability (BI-2536 + Navitoclax; first compound 0.3162 µM) | relative viability (BI-2536 + Navitoclax; first compound 1 µM) | relative viability (BI-2536 + Crizotinib; first compound 0.01 µM) | relative viability (BI-2536 + Crizotinib; first compound 0.03162 µM) | relative viability (BI-2536 + Crizotinib; first compound 0.1 µM) | relative viability (BI-2536 + Crizotinib; first compound 0.3162 µM) | relative viability (BI-2536 + Crizotinib; first compound 1 µM) |
| --- | --- | --- | --- | --- | --- | --- | --- | --- | --- | --- | --- | --- | --- | --- | --- | --- | --- | --- | --- | --- |
| NCI-H1437 | 0.393 | 0.469 | 0.391 | 0.361 | 0.422 | 0.321 | 0.288 | 0.267 | 0.227 | 0.212 | 1.08 | 1.08 | 0.714 | 0.145 | 0.142 | 0.812 | 0.593 | 0.418 | 0.117 | 0.116 |
| COR-L23 | 0.195 | 0.23 | 0.218 | 0.182 | 0.192 | 0.216 | 0.206 | 0.178 | 0.144 | 0.133 | 0.883 | 0.792 | 0.358 | 0.0817 | 0.0706 | 0.684 | 0.566 | 0.226 | 0.11 | 0.0912 |
| ABC-1 | 0.185 | 0.179 | 0.172 | 0.21 | 0.155 |  |  |  |  |  |  |  |  |  |  | 1.27 | 0.601 | 0.353 | 0.205 | 0.214 |
| SW 900 | 0.675 | 0.524 | 0.482 | 0.536 | 0.644 | 0.492 | 0.468 | 0.46 | 0.198 | 0.149 |  |  |  |  |  |  |  |  |  |  |
| NCI-H838 | 0.27 | 0.248 | 0.278 | 0.274 | 0.288 | 0.241 | 0.239 | 0.183 | 0.12 | 0.119 | 1.11 | 1.2 | 0.634 | 0.164 | 0.146 | 0.886 | 0.711 | 0.232 | 0.156 | 0.114 |
| NCI-H1648 | 0.523 | 0.431 |  |  | 0.474 | 0.878 | 0.511 | 0.41 | 0.293 | 0.265 |  |  |  |  |  |  |  |  |  |  |
| A549 |  |  |  |  |  |  |  |  |  |  | 1.38 | 1.07 | 0.0366 | 0.0423 | 0.0248 | 0.727 | 0.565 | 0.119 | 0.0589 | 0.0294 |
| A-427 | 0.222 | 0.23 | 0.207 | 0.192 | 0.252 | 1.01 | 1.07 | 0.504 | 0.198 | 0.196 | 0.961 | 0.979 | 0.941 | 0.284 | 0.165 | 0.927 | 0.678 | 0.535 | 0.119 | 0.0896 |
| NCI-H1792 |  |  |  |  |  | 0.779 | 0.792 | 0.328 | 0.0539 | 0.0316 | 0.624 | 0.589 | 0.559 | 0.171 | 0.0662 | 1.04 | 0.815 | 1.01 | 0.417 | 0.17 |
| LCLC-97TM1 | 0.177 | 0.31 | 0.215 | 0.188 | 0.228 | 0.176 | 0.159 | 0.0973 | 0.0981 | 0.0935 | 0.567 | 0.564 | 0.246 | 0.121 | 0.142 | 0.249 | 0.303 | 0.2 | 0.168 | 0.105 |
| NCI-H1703 |  |  |  |  |  |  |  |  |  |  | 1.13 | 0.349 | 0.136 | 0.142 | 0.104 | 0.626 |  | 0.173 | 0.131 | 0.0732 |
| LCLC-103H | 0.46 | 0.508 | 0.437 | 0.466 | 0.488 | 0.458 | 0.488 | 0.344 | 0.231 | 0.225 |  |  |  |  |  | 1.11 | 0.986 | 1.08 | 0.39 | 0.154 |
| Calu-6 |  |  |  |  |  |  |  |  |  |  | 0.825 | 0.397 | 0.106 | 0.0854 | 0.0728 | 0.713 | 0.4 | 0.273 | 0.113 | 0.102 |
| NCI-H358 | 0.108 | 0.11 | 0.0907 |  | 0.115 | 0.191 | 0.178 | 0.194 | 0.0986 | 0.102 |  |  |  |  |  | 0.446 | 0.259 | 0.22 | 0.173 | 0.139 |
| NCI-H2342 | 0.621 | 0.467 | 0.498 | 0.437 | 0.537 |  | 0.724 | 0.716 | 0.373 | 0.42 |  |  |  |  |  |  |  |  |  |  |
| EBC-1 |  |  |  |  |  |  |  |  |  |  | 0.327 | 0.28 | 0.171 | 0.173 | 0.159 | 0.194 | 0.14 | 0.175 | 0.141 | 0.145 |
| NCI-H1299 |  |  |  |  |  |  |  |  |  |  | 1.08 | 1.1 | 1.05 | 0.315 | 0.254 | 0.946 | 0.808 | 0.663 | 0.266 | 0.224 |
| NCI-H522 | 0.617 | 0.443 | 0.562 | 0.55 | 0.54 | 1.1 | 0.977 | 1.03 | 0.342 | 0.288 |  |  |  |  |  |  |  |  |  |  |
| IA-LM |  |  |  |  |  |  |  |  |  |  | 0.753 | 0.559 | 0.0092 | 0.0147 | 0.0245 | 0.771 | 0.667 | 0.125 | 0.108 | 0.058 |
| NCI-H727 | 0.641 | 0.616 | 0.545 | 0.539 | 0.649 |  |  |  |  |  | 0.356 | 0.552 | 0.255 | 0.138 | 0.176 | 0.939 | 0.7 | 0.364 | 0.331 | 0.295 |
| NCI-H650 | 0.738 | 0.778 | 0.713 | 0.661 | 0.796 | 0.912 | 1.11 | 0.551 | 0.196 | 0.139 |  |  |  |  |  | 0.597 | 0.347 | 0.271 | 0.21 | 0.17 |
| NCI-H661 | 0.351 | 0.351 | 0.35 | 0.386 | 0.36 | 0.936 | 0.61 | 0.449 | 0.293 | 0.289 |  |  |  |  |  | 0.97 | 0.928 | 0.854 | 0.381 | 0.262 |
| NCI-H1793 | 0.34 | 0.377 | 0.36 | 0.263 | 0.369 | 0.876 | 1.04 | 0.197 | 0.171 | 0.175 | 0.438 | 0.34 | 0.275 | 0.218 | 0.159 |  |  |  |  |  |

From the supplement of paper PMC10307832
